Where a name gives a salt, the structure may show the parent alone.
Target: interaction between p53 and MDM2 proteins (recombinant GST-tagged MDM2) (Homo sapiens, UniProt Q00987)
Assay: HTRF assay of inhibition of the p53-MDM2 interaction (GST-MDM2 / biotinylated p53 peptide);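 further: FRET read-out from Eu-labelled anti-GST antibody to streptavidin-APC, with 90 nM N-terminally biotinylated p53 peptide and 160 ng/ml GST-MDM2 in Tris-borate saline containing 1 mM DTT, 384-well format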
Assay type: binding
Settings: HTRF, 0.02% BSA, 37° C. 1 h

interaction between p53 and MDM2 proteins (recombinant GST-tagged MDM2), sequence (Q00987 whole entry): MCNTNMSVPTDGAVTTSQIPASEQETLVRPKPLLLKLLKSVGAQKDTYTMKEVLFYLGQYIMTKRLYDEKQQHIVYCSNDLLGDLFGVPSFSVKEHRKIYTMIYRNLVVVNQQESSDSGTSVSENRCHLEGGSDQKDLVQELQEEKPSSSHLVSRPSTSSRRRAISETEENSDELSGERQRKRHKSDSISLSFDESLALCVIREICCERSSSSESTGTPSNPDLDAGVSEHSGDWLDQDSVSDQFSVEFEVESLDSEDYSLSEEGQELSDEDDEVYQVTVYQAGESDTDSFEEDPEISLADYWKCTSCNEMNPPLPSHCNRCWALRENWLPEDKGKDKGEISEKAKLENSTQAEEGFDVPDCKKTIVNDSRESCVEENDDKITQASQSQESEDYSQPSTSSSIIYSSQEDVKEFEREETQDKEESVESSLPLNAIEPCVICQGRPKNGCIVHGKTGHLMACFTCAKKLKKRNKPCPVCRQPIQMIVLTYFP

| Structure (SMILES) | IC50 |
| --- | --- |
| COc1cc(C(=O)OCCOCCOCCOCCOCCOCCO)ccc1NC(=O)[C@@H]1N[C@@H](CC(C)(C)C)[C@](C#N)(c2ccc(Cl)cc2F)[C@H]1c1cccc(Cl)c1F [Example 52, 4-{[(2R,3S,4R,5S)-4-(4-Chloro-2-fluoro-phenyl)-3-(3-chloro-2-fluoro-phenyl)-4-cyano-5-(2,2-dimethyl-propyl)-pyrrolidine-2-carbonyl]-amino}-3-methoxy-benzoic acid 2-[2-(2-{2-[2-(2-hydroxy-ethoxy)-ethoxy]-ethoxy}-ethoxy)-ethoxy]-ethyl ester, hydrochloride] | 9.95 nM |
| COc1cc(C(=O)OC2CCN(C)CC2)ccc1NC(=O)[C@@H]1N[C@@H](CC(C)(C)C)[C@](C#N)(c2ccc(Cl)cc2F)[C@H]1c1cccc(Cl)c1F [Example 17, 4-{[(2R,3S,4R,5S)-4-(4-Chloro-2-fluoro-phenyl)-3-(3-chloro-2-fluoro-phenyl)-4-cyano-5-(2,2-dimethyl-propyl)-pyrrolidine-2-carbonyl]-amino}-3-methoxy-benzoic acid 1-methyl-piperidin-4-yl ester] | 11.5 nM |
| COc1cc(C(=O)OCCO)ccc1NC(=O)[C@@H]1N[C@@H](CC(C)(C)C)[C@](C#N)(c2ccc(Cl)cc2F)[C@H]1c1cccc(Cl)c1F [Example 1, 2-Hydroxyethyl 4-((2R,3S,4R,5S)-3-(3-chloro-2-fluorophenyl)-4-(4-chloro-2-fluorophenyl)-4-cyano-5-neopentylpyrrolidine-2-carboxamido)-3-methoxybenzoate] | 11.1 nM |
| COc1cc(C(=O)N(C)C)ccc1NC(=O)[C@@H]1N[C@@H](CC(C)(C)C)[C@](C#N)(c2ccc(Cl)cc2F)[C@H]1c1cccc(Cl)c1F [Example 27, (2R,3S,4R,5S)-4-(4-Chloro-2-fluoro-phenyl)-3-(3-chloro-2-fluoro-phenyl)-4-cyano-5-(2,2-dimethyl-propyl)-pyrrolidine-2-carboxylic acid (4-dimethylcarbamoyl-2-methoxy-phenyl)-amide] | 12.9 nM |
| COc1cc(C(=O)OCCOCCOCCOCCOCCOCCOCCOCCO)ccc1NC(=O)[C@@H]1N[C@@H](CC(C)(C)C)[C@](C#N)(c2ccc(Cl)cc2F)[C@H]1c1cccc(Cl)c1F [Example 42, 4-{[(2R,3S,4R,5S)-4-(4-Chloro-2-fluoro-phenyl)-3-(3-chloro-2-fluoro-phenyl)-4-cyano-5-(2,2-dimethyl-propyl)-pyrrolidine-2-carbonyl]-amino}-3-methoxy-benzoic acid, 2-(2-{2-[2-(2-{2-[2-(2-hydroxy-ethoxy)-ethoxy]-ethoxy}-ethoxy)-ethoxy]-ethoxy}-ethoxy)-ethyl ester, trifluoroacetate salt] | 22.2 nM |
| COc1cc(C(=O)NCCN2CCN(C)CC2)ccc1NC(=O)[C@@H]1N[C@@H](CC(C)(C)C)[C@](C#N)(c2ccc(Cl)cc2F)[C@H]1c1cccc(Cl)c1F [Example 26, (2R,3S,4R,5S)-4-(4-Chloro-2-fluoro-phenyl)-3-(3-chloro-2-fluoro-phenyl)-4-cyano-5-(2,2-dimethyl-propyl)-pyrrolidine-2-carboxylic acid {2-methoxy-4-[2-(4-methyl-piperazin-1-yl)-ethylcarbamoyl]-phenyl}-amide, hydrochloride] | 8.67 nM |
| COc1cc(C(=O)N[C@H](CCC(=O)O)C(=O)O)ccc1NC(=O)[C@@H]1N[C@@H](CC(C)(C)C)[C@](C#N)(c2ccc(Cl)cc2F)[C@H]1c1cccc(Cl)c1F [Example 54, (R)-2-(4-{[(2R,3S,4R,5S)-4-(4-Chloro-2-fluoro-phenyl)-3-(3-chloro-2-fluoro-phenyl)-4-cyano-5-(2,2-dimethyl-propyl)-pyrrolidine-2-carbonyl]-amino}-3-methoxy-benzoylamino)-pentanedioic acid, hydrochloride] | 4.55 nM |
| COC(=O)COC(=O)c1ccc(NC(=O)[C@@H]2N[C@@H](CC(C)(C)C)[C@](C#N)(c3ccc(Cl)cc3F)[C@H]2c2cccc(Cl)c2F)c(OC)c1 [Example 35, 4-{[(2R,3S,4R,5S)-4-(4-Chloro-2-fluoro-phenyl)-3-(3-chloro-2-fluoro-phenyl)-4-cyano-5-(2,2-dimethyl-propyl)-pyrrolidine-2-carbonyl]-amino}-3-methoxy-benzoic acid methoxycarbonylmethyl ester] | 12.5 nM |
| COc1cc(C(=O)OCCN(C)C)ccc1NC(=O)[C@@H]1N[C@@H](CC(C)(C)C)[C@](C#N)(c2ccc(Cl)cc2F)[C@H]1c1cccc(Cl)c1F [Example 7, 2-(Dimethylamino)ethyl 4-((2R,3S,4R,5S)-3-(3-chloro-2-fluorophenyl)-4-(4-chloro-2-fluorophenyl)-4-cyano-5-neopentylpyrrolidine-2-carboxamido)-3-methoxybenzoate] | 14.6 nM |
| COc1cc(C(=O)OCCI)ccc1NC(=O)[C@@H]1N[C@@H](CC(C)(C)C)[C@](C#N)(c2ccc(Cl)cc2F)[C@H]1c1cccc(Cl)c1F [Example 11, 2-Iodoethyl 4-((2R,3S,4R,5S)-3-(3-chloro-2-fluorophenyl)-4-(4-chloro-2-fluorophenyl)-4-cyano-5-neopentylpyrrolidine-2-carboxamido)-3-methoxybenzoate] | 11.7 nM |
| COc1cc(C(=O)OCC(=O)N2CCOCC2)ccc1NC(=O)[C@@H]1N[C@@H](CC(C)(C)C)[C@](C#N)(c2ccc(Cl)cc2F)[C@H]1c1cccc(Cl)c1F [Example 66, 4-{[(2R,3S,4R,5S)-4-(4-Chloro-2-fluoro-phenyl)-3-(3-chloro-2-fluoro-phenyl)-4-cyano-5-(2,2-dimethyl-propyl)-pyrrolidine-2-carbonyl]-amino}-3-methoxy-benzoic acid 2-morpholin-4-yl-2-oxo-ethyl ester] | 9.04 nM |
| COc1cc(C(=O)OCCN2CCN(CCOC(=O)c3ccc(NC(=O)[C@@H]4N[C@@H](CC(C)(C)C)[C@](C#N)(c5ccc(Cl)cc5F)[C@H]4c4cccc(Cl)c4F)c(OC)c3)CC2)ccc1NC(=O)[C@@H]1N[C@@H](CC(C)(C)C)[C@](C#N)(c2ccc(Cl)cc2F)[C@H]1c1cccc(Cl)c1F [Example 60, 4-{[(2R,3S,4R,5S)-4-(4-Chloro-2-fluoro-phenyl)-3-(3-chloro-2-fluoro-phenyl)-4-cyano-5-(2,2-dimethyl-propyl)-pyrrolidine-2-carbonyl]-amino}-3-methoxy-benzoic acid, 2-[4-(2-hydroxy-ethyl)-piperazin-1-yl]-ethyl ester, dimer] | 211 nM |
| COc1cc(C(=O)OCCOP(=O)(OC(C)(C)C)OC(C)(C)C)ccc1NC(=O)[C@@H]1N[C@@H](CC(C)(C)C)[C@](C#N)(c2ccc(Cl)cc2F)[C@H]1c1cccc(Cl)c1F [Example 12, 2-(Di-tert-butoxyphosphoryloxy)ethyl 4-((2R,3S,4R,5S)-3-(3-chloro-2-fluorophenyl)-4-(4-chloro-2-fluorophenyl)-4-cyano-5-neopentylpyrrolidine-2-carboxamido)-3-methoxybenzoate] | 9.59 nM |
| COc1cc(C(=O)OCCN2CCN(C)CC2)ccc1NC(=O)[C@@H]1N[C@@H](CC(C)(C)C)[C@](C#N)(c2ccc(Cl)cc2F)[C@H]1c1cccc(Cl)c1F [Example 19, 4-{[(2R,3S,4R,5S)-4-(4-Chloro-2-fluoro-phenyl)-3-(3-chloro-2-fluoro-phenyl)-4-cyano-5-(2,2-dimethyl-propyl)-pyrrolidine-2-carbonyl]-amino}-3-methoxy-benzoic acid 2-(4-methyl-piperazin-1-yl)-ethyl ester] | 5.58 nM |
